pIC50: −log10 of the molar value.
Experiments:
[1] = Stereochemical analysis by chiral stationary phase HPLC (atropisomerism); type: physicochemical; settings: chiral stationary phase HPLC (16 different conditions for the examples)
Procedure: Each of these mobile phase are compatible with the column packings referred to above, providing sixteen different solvent and stationary phase permutations. Modifiers such as triethylamine (0.1%), formic acid (0.1%) may be added to improve the resolution
Semi-preparative Chiral Stationary Phase LC-UV was performed on a Gilson preparative modular system using a Daicel Chiralpak AD semi-prep column ([…], 20×250 mm) and a flow rate of 18 mL/min eluting with an isocratic method over 20 min using […] heptane:IPA and 0.1% triethylamine employing an injection volume of 1.0 mL.

[2] = tested on: PMA-differentiated U937 cells; assay: MTT Assay (cell viability); type: cell-based, Human; settings: percentage loss of cell viability; for Cell Viability MTT Assay in D-U937 cells at 4 hr: 4 hr in 5% FCS; for Cell Viability MTT Assay in D-U937 cells at 24 hr: 24 hr in 10% FCS
Summary of the method: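 Differentiated U937 cells treated with compound for 4 hr (5% FCS) or 24 hr (10% FCS), then given MTT for 1 hr; formazan dissolved in DMSO and absorbance read at 550 nm. Viability loss expressed as % versus 0.5% DMSO vehicle.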

[3] = target: recombinant PI3 kinase α (Homo sapiens (Human), UniProt P42336); assay: Enzyme Inhibition Assay (HTRF PI3K enzyme assay, TR-FRET); type: biochemical; settings: activity range; read-out: PI3 Kinase Inhibition IC50 values at stated Isozyme α
Chain of recombinant PI3 kinase α (P42336 whole entry, the tested form may be a part): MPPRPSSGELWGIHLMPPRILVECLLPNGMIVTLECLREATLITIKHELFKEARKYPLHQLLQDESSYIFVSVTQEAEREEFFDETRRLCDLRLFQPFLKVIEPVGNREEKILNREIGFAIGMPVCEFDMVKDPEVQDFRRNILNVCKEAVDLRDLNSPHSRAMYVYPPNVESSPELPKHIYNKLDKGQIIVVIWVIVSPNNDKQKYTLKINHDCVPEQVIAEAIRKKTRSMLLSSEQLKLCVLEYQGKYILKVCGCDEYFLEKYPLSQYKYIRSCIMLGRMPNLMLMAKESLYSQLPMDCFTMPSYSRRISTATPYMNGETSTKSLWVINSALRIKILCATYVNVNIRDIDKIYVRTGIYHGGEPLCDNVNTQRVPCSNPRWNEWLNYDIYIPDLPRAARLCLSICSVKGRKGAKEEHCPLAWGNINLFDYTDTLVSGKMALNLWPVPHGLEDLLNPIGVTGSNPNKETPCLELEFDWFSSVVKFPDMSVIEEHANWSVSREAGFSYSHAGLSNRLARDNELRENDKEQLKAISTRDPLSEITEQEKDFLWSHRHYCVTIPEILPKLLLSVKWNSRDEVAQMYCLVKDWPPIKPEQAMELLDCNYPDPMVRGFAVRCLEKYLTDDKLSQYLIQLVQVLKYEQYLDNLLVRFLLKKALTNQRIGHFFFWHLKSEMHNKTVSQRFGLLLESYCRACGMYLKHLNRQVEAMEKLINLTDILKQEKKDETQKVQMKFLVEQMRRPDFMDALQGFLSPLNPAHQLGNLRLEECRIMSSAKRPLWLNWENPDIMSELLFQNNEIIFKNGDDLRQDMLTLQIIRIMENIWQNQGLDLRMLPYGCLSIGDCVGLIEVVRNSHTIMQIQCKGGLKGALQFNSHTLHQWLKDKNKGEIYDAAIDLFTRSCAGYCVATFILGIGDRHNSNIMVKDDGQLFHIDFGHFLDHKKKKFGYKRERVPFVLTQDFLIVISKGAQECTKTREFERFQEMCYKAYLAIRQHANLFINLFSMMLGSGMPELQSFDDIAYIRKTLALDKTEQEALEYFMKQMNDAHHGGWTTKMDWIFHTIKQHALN
Chain of recombinant PI3 kinase α (P27986 whole entry partner, the tested form may be a part): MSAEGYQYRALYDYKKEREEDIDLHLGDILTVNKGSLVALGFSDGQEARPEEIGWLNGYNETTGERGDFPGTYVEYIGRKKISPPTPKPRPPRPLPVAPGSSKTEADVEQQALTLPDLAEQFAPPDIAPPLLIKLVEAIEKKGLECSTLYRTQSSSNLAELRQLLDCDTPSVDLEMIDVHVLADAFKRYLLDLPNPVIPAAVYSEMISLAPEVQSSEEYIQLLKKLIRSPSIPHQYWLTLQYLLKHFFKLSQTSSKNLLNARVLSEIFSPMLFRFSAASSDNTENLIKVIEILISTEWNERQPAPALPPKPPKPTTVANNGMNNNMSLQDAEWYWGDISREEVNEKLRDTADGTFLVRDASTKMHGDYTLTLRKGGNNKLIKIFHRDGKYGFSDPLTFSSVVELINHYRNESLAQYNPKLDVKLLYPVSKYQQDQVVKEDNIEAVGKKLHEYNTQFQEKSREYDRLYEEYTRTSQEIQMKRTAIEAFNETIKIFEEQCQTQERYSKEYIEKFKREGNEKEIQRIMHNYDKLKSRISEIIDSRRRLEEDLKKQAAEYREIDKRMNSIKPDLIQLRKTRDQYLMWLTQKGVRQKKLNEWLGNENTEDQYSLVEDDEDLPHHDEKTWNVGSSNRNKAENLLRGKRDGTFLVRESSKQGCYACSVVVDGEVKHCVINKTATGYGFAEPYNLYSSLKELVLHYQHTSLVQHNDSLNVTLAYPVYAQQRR
Summary of the method: (§1)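 TR-FRET readout after 15-18 hr at RT with biotinylated PIP3, GST-tagged GRP1 PH domain and europium/APC fluorophores; product PIP3 displaces the tracer and lowers the signal. Beforehand, compound and PIP2 were reacted for 2 hr at RT with human recombinant PI3Kα, δ or γ.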

[4] = target: recombinant PI3 kinase δ (Homo sapiens (Human), UniProt O00329); assay: as above; type: biochemical; settings: activity range; read-out: PI3 Kinase Inhibition IC50 values at stated Isozyme δ
Chain of recombinant PI3 kinase δ (O00329 whole entry): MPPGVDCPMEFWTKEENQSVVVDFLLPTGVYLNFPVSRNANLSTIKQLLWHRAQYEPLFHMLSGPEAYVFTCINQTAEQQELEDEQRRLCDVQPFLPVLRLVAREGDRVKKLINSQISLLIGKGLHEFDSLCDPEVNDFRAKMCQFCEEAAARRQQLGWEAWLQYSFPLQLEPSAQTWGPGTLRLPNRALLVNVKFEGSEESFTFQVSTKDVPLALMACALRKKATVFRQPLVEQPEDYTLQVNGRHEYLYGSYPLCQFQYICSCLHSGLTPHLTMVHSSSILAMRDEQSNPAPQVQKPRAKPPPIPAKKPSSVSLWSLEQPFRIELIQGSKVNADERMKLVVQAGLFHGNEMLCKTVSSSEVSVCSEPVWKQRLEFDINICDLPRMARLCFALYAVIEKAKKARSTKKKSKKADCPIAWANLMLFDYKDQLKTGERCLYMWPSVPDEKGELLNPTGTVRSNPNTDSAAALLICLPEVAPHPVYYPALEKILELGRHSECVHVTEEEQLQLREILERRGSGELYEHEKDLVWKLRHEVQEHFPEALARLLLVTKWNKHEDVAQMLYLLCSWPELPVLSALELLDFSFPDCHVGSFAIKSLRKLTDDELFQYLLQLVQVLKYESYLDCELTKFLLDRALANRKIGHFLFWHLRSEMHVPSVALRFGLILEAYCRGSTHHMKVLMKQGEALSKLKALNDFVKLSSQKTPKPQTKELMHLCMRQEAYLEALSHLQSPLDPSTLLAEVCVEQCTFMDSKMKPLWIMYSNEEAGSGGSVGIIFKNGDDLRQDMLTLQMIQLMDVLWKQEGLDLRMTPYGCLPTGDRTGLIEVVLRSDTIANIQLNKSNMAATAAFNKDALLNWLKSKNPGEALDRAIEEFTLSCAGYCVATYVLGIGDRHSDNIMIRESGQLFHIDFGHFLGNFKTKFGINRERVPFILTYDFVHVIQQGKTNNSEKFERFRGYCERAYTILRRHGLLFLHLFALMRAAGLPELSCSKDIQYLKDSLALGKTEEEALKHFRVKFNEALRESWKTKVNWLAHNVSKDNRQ
Chain of recombinant PI3 kinase δ (P27986 whole entry partner): as the sequence (P27986 whole entry partner, the tested form may be a part) above
Summary of the method: as §1

[5] = target: recombinant PI3 kinase γ (Homo sapiens (Human), UniProt P48736); assay: as above; type: biochemical; settings: activity range; read-out: PI3 Kinase Inhibition IC50 values at stated Isozyme γ
Chain of recombinant PI3 kinase γ (P48736 whole entry): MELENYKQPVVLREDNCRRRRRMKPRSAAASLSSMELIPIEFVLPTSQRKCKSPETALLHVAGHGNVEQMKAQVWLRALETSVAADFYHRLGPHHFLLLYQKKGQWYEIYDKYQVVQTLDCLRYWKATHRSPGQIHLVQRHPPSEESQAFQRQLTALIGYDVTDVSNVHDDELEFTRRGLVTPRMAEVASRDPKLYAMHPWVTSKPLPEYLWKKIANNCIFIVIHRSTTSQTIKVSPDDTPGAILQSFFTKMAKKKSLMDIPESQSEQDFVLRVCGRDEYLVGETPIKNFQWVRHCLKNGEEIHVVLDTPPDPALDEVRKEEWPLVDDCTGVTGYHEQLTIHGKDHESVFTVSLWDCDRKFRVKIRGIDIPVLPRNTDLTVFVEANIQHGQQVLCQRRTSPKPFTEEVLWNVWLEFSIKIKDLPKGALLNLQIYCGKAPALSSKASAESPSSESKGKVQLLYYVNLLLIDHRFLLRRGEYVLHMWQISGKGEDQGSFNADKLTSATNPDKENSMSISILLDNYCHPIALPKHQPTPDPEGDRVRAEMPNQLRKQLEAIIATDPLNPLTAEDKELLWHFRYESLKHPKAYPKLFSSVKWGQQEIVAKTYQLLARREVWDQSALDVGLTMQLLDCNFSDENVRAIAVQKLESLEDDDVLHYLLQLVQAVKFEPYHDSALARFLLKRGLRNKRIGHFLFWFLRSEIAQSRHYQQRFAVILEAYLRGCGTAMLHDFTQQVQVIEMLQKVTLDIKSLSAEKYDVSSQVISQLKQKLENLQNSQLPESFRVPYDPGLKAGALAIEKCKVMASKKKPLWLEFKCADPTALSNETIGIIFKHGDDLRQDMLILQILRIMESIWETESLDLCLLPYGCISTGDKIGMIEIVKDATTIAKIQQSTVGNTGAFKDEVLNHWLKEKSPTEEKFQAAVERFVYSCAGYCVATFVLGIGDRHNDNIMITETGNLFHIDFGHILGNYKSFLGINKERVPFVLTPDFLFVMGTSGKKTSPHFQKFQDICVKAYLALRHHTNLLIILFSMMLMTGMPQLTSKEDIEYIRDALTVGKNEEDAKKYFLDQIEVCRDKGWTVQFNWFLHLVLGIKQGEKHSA
Summary of the method: as §1

[6] = tested on: H2O2 induced pAkt in D-U937 cells; assay: PI3Kδ Cell Based Assay (H2O2 induced pAkt); settings: Homo sapiens, dU937; activity range; D-U937 cells; read-out: Cellular Activity IC50 values (H2O2 induced pAkt D-U937 Cells)
Summary of the method: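 Read-out is the pAkt/total Akt signal ratio, measured with anti-pAkt and anti-pan-Akt antibodies after H2O2 stimulation. Cells were U937 monocytes given PMA (100 ng/mL) for 48 to 72 hr. IC50 values fitted from compound serial dilutions.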

Row | Compound | pIC50 [3] | pIC50 [4] | pIC50 [5] | pIC50 [6] | atropisomerism by chiral stationary phase HPLC [1] | Cell Viability MTT Assay in D-U937 cells at 4 hr [2] | Cell Viability MTT Assay in D-U937 cells at 24 hr [2]
1 | C#Cc1cccc2nc(Cn3nc(-c4cccc(O)c4)c4c(N)ncnc43)n(Cc3ccc(C(F)(F)F)cc3)c(=O)c12 [Example 21, 2-((4-Amino-3-(3-hydroxyphenyl)-1H-pyrazolo[3,4-d]pyrimidin-1-yl)methyl)-5-ethynyl-3-(4-(trifluoromethyl)benzyl)quinazolin-4(3H)-one] | 6.00 to 7.30 | > 7.30 | 6.00 to 7.30 | > 8.00 | no evidence for atropisomerism was observed | − (− <30%) | − (− <30%)
2 | C#Cc1cccc2nc(Cn3nc(-c4cccc(O)c4)c4c(N)ncnc43)n(Cc3cccc(S(C)(=O)=O)c3)c(=O)c12 [Example 23, 2-((4-Amino-3-(3-hydroxyphenyl)-1H-pyrazolo[3,4-d]pyrimidin-1-yl)methyl)-5-ethynyl-3-(3-(methylsulfonyl)benzyl)quinazolin-4(3H)-one] | 6.00 to 7.30 | > 7.30 | 6.00 to 7.30 | > 8.00 | no evidence for atropisomerism was observed | − (− <30%) | − (− <30%)
3 | C#Cc1cccc2nc(Cn3nc(-c4cccc(O)c4)c4c(N)ncnc43)n(Cc3cc(C)on3)c(=O)c12 [Example 31, 2-((4-Amino-3-(3-hydroxyphenyl)-1H-pyrazolo[3,4-d]pyrimidin-1-yl)methyl)-5-ethynyl-3-((5-methylisoxazol-3-yl)methyl)quinazolin-4(3H)-one] | 6.00 to 7.30 | > 7.30 | 6.00 to 7.30 | > 8.00 | no evidence for atropisomerism was observed | − (− <30%) | − (− <30%)
4 | C#Cc1cccc2nc(Cn3nc(-c4ccc(O)cc4)c4c(N)ncnc43)n(Cc3cc(C)on3)c(=O)c12 [Example 32, 2-((4-Amino-3-(4-hydroxyphenyl)-1H-pyrazolo[3,4-d]pyrimidin-1-yl)methyl)-5-ethynyl-3-((5-methylisoxazol-3-yl)methyl)quinazolin-4(3H)-one] | 6.00 to 7.30 | > 7.30 | 6.00 to 7.30 | > 8.00 | no evidence for atropisomerism was observed | − (− <30%) | − (− <30%)
5 | C#Cc1cccc2nc(Cn3nc(-c4ccc(O)cc4)c4c(N)ncnc43)n(Cc3cccc(Cl)c3F)c(=O)c12 [Example 33, 2-((4-Amino-3-(4-hydroxyphenyl)-1H-pyrazolo[3,4-d]pyrimidin-1-yl)methyl)-3-(3-chloro-2-fluorobenzyl)-5-ethynylquinazolin-4(3H)-one] | 6.00 to 7.30 | > 7.30 | 6.00 to 7.30 | > 8.00 | no evidence for atropisomerism was observed | − (− <30%) | − (− <30%)
6 | C#Cc1cccc2nc(Cn3nc(-c4ccc(O)cc4)c4c(N)ncnc43)n(Cc3ccc(F)cc3)c(=O)c12 [Example 38, 2-((4-Amino-3-(4-hydroxyphenyl)-1H-pyrazolo[3,4-d]pyrimidin-1-yl)methyl)-5-ethynyl-3-(4-fluorobenzyl) quinazolin-4(3H)-one] | 6.00 to 7.30 | > 7.30 | 6.00 to 7.30 | > 8.00 | no evidence for atropisomerism was observed | − (− <30%) | − (− <30%)

Continued, in another order:

Row | pIC50 [3] | pIC50 [4] | pIC50 [5] | pIC50 [6] | Compound | atropisomerism by chiral stationary phase HPLC [1] | Cell Viability MTT Assay in D-U937 cells at 4 hr [2] | Cell Viability MTT Assay in D-U937 cells at 24 hr [2]
7 | 6.00 to 7.30 | > 7.30 | 6.00 to 7.30 | > 8.00 | C#Cc1cccc2nc(Cn3nc(-c4ccc(O)cc4)c4c(N)ncnc43)n(Cc3ccc(S(C)(=O)=O)cc3)c(=O)c12 [Example 20, 2-((4-Amino-3-(4-hydroxyphenyl)-1H-pyrazolo[3,4-d]pyrimidin-1-yl)methyl)-5-ethynyl-3-(4-(methylsulfonyl)benzyl)quinazolin-4(3H)-one] | no evidence for atropisomerism was observed | − (− <30%) | − (− <30%)
8 | 6.00 to 7.30 | > 7.30 | 6.00 to 7.30 | > 8.00 | C#Cc1cccc2nc(Cn3nc(-c4cccc(O)c4)c4c(N)ncnc43)n(Cc3cccc(C#N)c3)c(=O)c12 [Example 24, 3-((2-((4-Amino-3-(3-hydroxyphenyl)-1H-pyrazolo[3,4-d]pyrimidin-1-yl)methyl)-5-ethynyl-4-oxoquinazolin-3(4H)-yl)methyl)benzonitrile] | no evidence for atropisomerism was observed | − (− <30%) | − (− <30%)
9 | 6.00 to 7.30 | > 7.30 | 6.00 to 7.30 | > 8.00 | C#Cc1cccc2nc(Cn3nc(-c4cccc(O)c4)c4c(N)ncnc43)n(Cc3ccc(Cl)cc3)c(=O)c12 [Example 25, 2-((4-Amino-3-(3-hydroxyphenyl)-1H-pyrazolo[3,4-d]pyrimidin-1-yl)methyl)-3-(4-chlorobenzyl)-5-ethynylquinazolin-4(3H)-one] | no evidence for atropisomerism was observed | − (− <30%) | − (− <30%)
10 | 6.00 to 7.30 | > 7.30 | 6.00 to 7.30 | > 8.00 | C#Cc1cccc2nc(Cn3nc(-c4ccc(O)cc4)c4c(N)ncnc43)n(Cc3c(F)cccc3F)c(=O)c12 [Example 34, 2-((4-Amino-3-(4-hydroxyphenyl)-1H-pyrazolo[3,4-d]pyrimidin-1-yl)methyl)-3-(2,6-difluorobenzyl)-5-ethynylquinazolin-4(3H)-one] | no evidence for atropisomerism was observed | − (− <30%) | − (− <30%)

Reference: patent US9321773B2, “Compounds” (Respivert Ltd, priority 2009, dated 2016)
